Laboratory results: patent US10987359B2, “Oxadiazepinone derivatives and methods of treating hepatitis B infections” (priority 2016, dated 2021)

Test system: HBV
Assay: HBV replication inhibition assay (BDNA assay) in HepG2.2.15 cells
Type: cell-based
Details: HBV replication assay (BDNA assay), HepG2.2.15 cells; read-out: DNA EC50
Protocol: HBV replication inhibition by the disclosed compounds were determined in cells infected or transfected with HBV or cells with stably integrated HBV, such as HepG2.2.15 cells (Sells et al. 1987). In this example, HepG2.2.15 cells were maintained in cell culture medium containing 10% fetal bovine serum (FBS), Geneticin, L-glutamine, penicillin and streptomycin. HepG2.2.15 cells were seeded in 96-well plates at a density of 40,000 cells/well and were treated with serially diluted compounds at a final DMSO concentration of 0.5% either alone or in combination by adding drugs in a checker box format. Cells were incubated with compounds for three days, after which medium was removed and fresh medium containing compounds was added to cells and incubated for another three days. At day 6, supernatant was removed and treated with DNase at 37° C. for 60 minutes, followed by enzyme inactivation at 75° C. for 15 minutes. Encapsidated HBV DNA was released from the virions and covalently linked HBV polymerase by incubating in lysis buffer (Affymetrix QS0010) containing 2.5 μg proteinase K at 50° C. for 40 minutes. HBV DNA was denatured by addition of 0.2 M NaOH and detected using a branched DNA (BDNA) QuantiGene assay kit according to manufacturer recommendation (Affymetrix). HBV DNA levels were also quantified using qPCR, based on amplification of encapsidated HBV DNA extraction with QuickExtraction Solution (Epicentre Biotechnologies) and amplification of HBV DNA using HBV specific PCR probes that can hybridize to HBV DNA and a fluorescently labeled probe for quantitation. In addition, cell viability of HepG2.2.15 cells incubated with test compounds alone or in combination was determined by using CellTitre-Glo reagent according to the manufacturer protocol (Promega). The mean background signal from wells containing only culture medium was subtracted from all other samples, and percent inhibition at each compound concentration was calculated by normalizing to signals from HepG2.2.15 cells treated with 0.5% DMSO using equation E1. % inhibition=(DMSOave−Xi)/DMSOave×100% E1: […]
where DMSOave is the mean signal calculated from the wells that were treated with DMSO control (0% inhibition control) and Xi is the signal measured from the individual wells. EC50 values, effective concentrations that achieved 50% inhibitory effect, were determined by non-linear fitting using Graphpad Prism software (San Diego, Calif.) and equation E2: Y=Y min+(Y max−Y min)/(1+10(Log EC50−X)×HillSlope) E2: […]
where Y represents percent inhibition values and X represents the logarithm of compound concentrations.
Selected disclosed compounds were assayed in the HBV replication assay (BDNA assay), as described above, and a representative group of these active compounds is shown in Table 7. […] In Table 7, “A” represents 1<EC50≤100; “B” represents 100<EC50≤500; “C” represents 500<EC50≤1000; and “D” represents EC50>1000.

`CCN1OC(CO)Cn2nc3c(c2C1=O)CN(C(=O)Nc1ccc(F)c(Cl)c1)CC3` (single isomer, unassigned) [Compound 060_E2, (R*)—N-(3-chloro-4-fluorophenyl)-2-ethyl-4-(hydroxymethyl)-1-oxo-1,4,5,8,9,11-hexahydropyrido[4′,3′:3,4]pyrazolo[5,1-d][1,2,5]oxadiazepine-10(2H)-carboxamide] and `Cc1cc(NC(=O)N2Cc3c(nn4c3C(=O)N(C)OC(CO)C4)C[C@H]2C)ccc1F` (single isomer, unassigned) [Compound 083_E2, (4R*,9R)—N-(4-fluoro-3-methylphenyl)-4-(hydroxymethyl)-2,9-dimethyl-1-oxo-1,4,5,8,9,11-hexahydropyrido[4′,3′:3,4]pyrazolo [5,1-d][1,2,5]oxadiazepine-10(2H)-carboxamide] fall in the same range of EC50: 1 to 100 nM for the first, 1 to 100 nM for the second.

`C[C@@H]1Cc2nn3c(c2CN1C(=O)Nc1ccc(F)c(Cl)c1)C(=O)N(C)OC(CF)C3` (single isomer, unassigned) [Compound 088_E2, (4R*,9R)—N-(3-chloro-4-fluorophenyl)-4-(fluoromethyl)-2,9-dimethyl-1-oxo-1,4,5,8,9,11-hexahydropyrido[4′,3′:3,4]pyrazolo[5,1-d][1,2,5]oxadiazepine-10(2H)-carboxamide] and `C[C@@H]1Cc2nn3c(c2CN1C(=O)Nc1ccc(F)c(Br)c1F)C(=O)N(C)OC(CO)C3` (single isomer, unassigned) [Compound 092_E2, (4R*,9R)—N-(3-bromo-2,4-difluorophenyl)-4-(hydroxymethyl)-2,9-dimethyl-1-oxo-1,4,5,8,9,11-hexahydropyrido[4′,3′:3,4]pyrazolo[5,1-d][1,2,5]oxadiazepine-10(2H)-carboxamide] fall in the same range of EC50: 1 to 100 nM for the first, 1 to 100 nM for the second.

Compared with `C[C@@H]1Cc2nn3c(c2CN1C(=O)Nc1cc(Br)c(F)cc1F)C(=O)N(C)OC(COCC(F)F)C3` (single isomer, unassigned) [Compound 108_D1, (4S*,9R)—N-(5-bromo-2,4-difluorophenyl)-4-((2,2-difluoroethoxy)methyl)-2,9-dimethyl-1-oxo-1,4,5,8,9,11-hexahydropyrido[4′,3′:3,4]pyrazolo[5,1-d][1,2,5]oxadiazepine-10(2H)-carboxamide], `CNC(=O)C1Cn2nc3c(c2C(=O)N(C)O1)CN(C(=O)Nc1ccc(F)c(Cl)c1F)[C@H](C)C3` (single isomer, unassigned) [Compound 110_D1, (4S*,9R)—N10-(3-chloro-2,4-difluorophenyl)-N4,2,9-trimethyl-1-oxo-1,4,5,8,9,11-hexahydropyrido[4′,3′:3,4]pyrazolo[5,1-d][1,2,5]oxadiazepine-4,10(2H)-dicarboxamide] is higher in EC50: 100 to 500 nM for the first, 500 to 1000 nM for the second. The first is the more potent here.

`C[C@@H]1Cc2nn3c(c2CN1C(=O)Nc1cc(Br)c(F)cc1F)C(=O)N(C)OC(COCC(F)F)C3` (single isomer, unassigned) [Compound 108_D2, (4R*,9R)—N-(5-bromo-2,4-difluorophenyl)-4-((2,2-difluoroethoxy)methyl)-2,9-dimethyl-1-oxo-1,4,5,8,9,11-hexahydropyrido[4′,3′:3,4]pyrazolo[5,1-d][1,2,5]oxadiazepine-10(2H)-carboxamide] and `CNC(=O)C1Cn2nc3c(c2C(=O)N(C)O1)CN(C(=O)Nc1ccc(F)c(Cl)c1F)[C@H](C)C3` (single isomer, unassigned) [Compound 110_D2, (4R*,9R)—N10-(3-chloro-2,4-difluorophenyl)-N4,2,9-trimethyl-1-oxo-1,4,5,8,9,11-hexahydropyrido[4′,3′:3,4]pyrazolo[5,1-d][1,2,5]oxadiazepine-4,10(2H)-dicarboxamide] fall in the same range of EC50: 1 to 100 nM for the first, 1 to 100 nM for the second.

Same assay, conditions: Hepatitis B virus, HepG2.2.15, HBV replication assay (BDNA assay), HepG2.2.15 cells; read-out: DNA EC50

`Cc1cc(NC(=O)N2Cc3c(nn4c3C(=O)N(C)OC(CO)C4)C[C@H]2C)ccc1F` (single isomer, unassigned) [Compound 083_E1, (4S*,9R)—N-(4-fluoro-3-methylphenyl)-4-(hydroxymethyl)-2,9-dimethyl-1-oxo-1,4,5,8,9,11-hexahydropyrido[4′,3′:3,4]pyrazolo[5,1-d][1,2,5]oxadiazepine-10(2H)-carboxamide] and `C[C@@H]1Cc2nn3c(c2CN1C(=O)Nc1ccc(F)c(Cl)c1)C(=O)N(C)OC(CF)C3` (single isomer, unassigned) [Compound 088_E1, (4S*,9R)—N-(3-chloro-4-fluorophenyl)-4-(fluoromethyl)-2,9-dimethyl-1-oxo-1,4,5,8,9,11-hexahydropyrido[4′,3′:3,4]pyrazolo[5,1-d][1,2,5]oxadiazepine-10(2H)-carboxamide] fall in the same range of EC50: 1 to 100 nM for the first, 1 to 100 nM for the second.

`C[C@@H]1Cc2nn3c(c2CN1C(=O)Nc1ccc(F)c(Br)c1F)C(=O)N(C)OC(CO)C3` (single isomer, unassigned) [Compound 092_E1, (4S*,9R)—N-(3-bromo-2,4-difluorophenyl)-4-(hydroxymethyl)-2,9-dimethyl-1-oxo-1,4,5,8,9,11-hexahydropyrido[4′,3′:3,4]pyrazolo[5,1-d][1,2,5]oxadiazepine-10(2H)-carboxamide] and `C[C@@H]1Cc2nn3c(c2CN1C(=O)Nc1ccc(F)c(C#N)c1)C(=O)N(C)OC(CN)C3` (single isomer, unassigned) [Compound 115_D1, (4S*,9R)-4-(aminomethyl)-N-(3-cyano-4-fluorophenyl)-2,9-dimethyl-1-oxo-1,4,5,8,9,11-hexahydropyrido[4′,3′:3,4]pyrazolo[5,1-d][1,2,5]oxadiazepine-10(2H)-carboxamide] fall in the same range of EC50: 1 to 100 nM for the first, 1 to 100 nM for the second.

`C[C@@H]1Cc2nn3c(c2CN1C(=O)Nc1ccc(F)c(Cl)c1)C(=O)N(C)OC(CN(C)C)C3` (single isomer, unassigned) [Compound 093_D1, (4S*,9R)—N-(3-chloro-4-fluorophenyl)-4-((dimethylamino)methyl)-2,9-dimethyl-1-oxo-1,4,5,8,9,11-hexahydropyrido[4′,3′:3,4]pyrazolo[5,1-d][1,2,5]oxadiazepine-10(2H)-carboxamide] and `C[C@@H]1Cc2nn3c(c2CN1C(=O)Nc1ccc(F)c(Cl)c1)C(=O)N(C)OC(COCC(F)F)C3` (single isomer, unassigned) [Compound 121_D1, (4S*,9R)—N-(3-chloro-4-fluorophenyl)-4-((2,2-difluoroethoxy)methyl)-2,9-dimethyl-1-oxo-1,4,5,8,9,11-hexahydropyrido[4′,3′:3,4]pyrazolo[5,1-d][1,2,5]oxadiazepine-10(2H)-carboxamide] fall in the same range of EC50: 1 to 100 nM for the first, 1 to 100 nM for the second.

`CN1OC(CO)Cn2nc3c(c2C1=O)CN(C(=O)Nc1cc(F)c(F)c(Cl)c1F)CC3` (single isomer, unassigned) [Compound 137_E1, (S*)—N-(3-chloro-2,4,5-trifluorophenyl)-4-(hydroxymethyl)-2-methyl-1-oxo-1,4,5,8,9,11-hexahydropyrido[4′,3′:3,4]pyrazolo[5,1-d][1,2,5]oxadiazepine-10(2H)-carboxamide] and `CN1OC(CO)Cn2nc3c(c2C1=O)CN(C(=O)Nc1cc(Br)cc(F)c1F)CC3` (single isomer, unassigned) [Compound 140_E1, (S*)—N-(5-bromo-2,3-difluorophenyl)-4-(hydroxymethyl)-2-methyl-1-oxo-1,4,5,8,9,11-hexahydropyrido[4′,3′:3,4]pyrazolo[5,1-d][1,2,5]oxadiazepine-10(2H)-carboxamide] fall in the same range of EC50: 1 to 100 nM for the first, 1 to 100 nM for the second.

First: CN1OC(CO)Cn2nc3c(c2C1=O)CN(C(=O)Nc1c(F)ccc(Cl)c1F)CC3 (single isomer, unassigned) [Compound 138_E1, (S*)—N-(3-chloro-2,6-difluorophenyl)-4-(hydroxymethyl)-2-methyl-1-oxo-1,4,5,8,9,11-hexahydropyrido[4′,3′:3,4]pyrazolo[5,1-d][1,2,5]oxadiazepine-10(2H)-carboxamide]
Second: CN1OC(CO)Cn2nc3c(c2C1=O)CN(C(=O)Nc1cc(Cl)ccc1F)CC3 (single isomer, unassigned) [Compound 139_E1, (S*)—N-(5-chloro-2-fluorophenyl)-4-(hydroxymethyl)-2-methyl-1-oxo-1,4,5,8,9,11-hexahydropyrido[4′,3′:3,4]pyrazolo[5,1-d][1,2,5]oxadiazepine-10(2H)-carboxamide]
The EC50 of the first is higher: 100 to 500 nM for the first, 1 to 100 nM for the second. The second is the more potent here.

For `CN1OC(CO)Cn2nc3c(c2C1=O)CN(C(=O)Nc1cc(Br)ccc1F)CC3` (single isomer, unassigned) [Compound 141_E1, (S*)—N-(5-bromo-2-fluorophenyl)-4-(hydroxymethyl)-2-methyl-1-oxo-1,4,5,8,9,11-hexahydropyrido[4′,3′:3,4]pyrazolo[5,1-d][1,2,5]oxadiazepine-10(2H)-carboxamide], the EC50 was 1 to 100 nM.
